In patent US20200038417A1, “METHODS AND COMPOSITIONS FOR TREATING COGNITIVE IMPAIRMENT” (Enterin, Inc., priority 2018, published 2020):
Entries after “also recorded” stand apart in the source; their conditions may differ.

What was measured:
αS [1] = target: T1, αS (Homo sapiens, UniProt P37840); conditions: in vitro; cited from earlier work
αS [2] = target: T1, αS; conditions: in vitro; cited from earlier work; remark: listed apart in the source
[3] = Safety and adverse event (AE) profile, Phase 2 trial of oral squalamine (ENT-01); assay type: in vivo, human
Description: (§1) Tolerability limits included diarrhea or vomiting.
(§2) In Stage 2, 34 patients were evaluated.

[4] = tested on: patients with PD and constipation; assay: Effect on bowel function (prokinetic response, stool diary indices), Phase 2 trial; assay type: in vivo, human; conditions: patients with baseline ≥1 CSBM/week
Description: Following successful screening, all subjects underwent a 14-day run-in period where the degree of constipation was assessed through a validated daily log (Zinsmeister et al. 2013) establishing baseline CSBMs/week. Subjects with an average of <3 CSBMs/week proceeded to dosing.
as §1, §2
The primary efficacy outcome variable was whether or not a subject was a “success” or “failure”. This is an endpoint based on subject diary entries for the “fixed dose” period prior to the endpoint assessment defined as average complete stool frequency increase by 1 or more over baseline, or 3 or more complete spontaneous stools/week. The subject was deemed a “success” if s/he met one or more of the criteria listed above, otherwise the subject was deemed a “failure”. The primary analysis was based on all subjects with a baseline assessment and an assessment at the end of the “fixed-dose” period and was a comparison of the proportion of successes with 0.10 (the null hypothesis corresponding to no treatment effect).

[5] = Preclinical studies of oral squalamine (ENT-01) in rats; assay type: in vivo; conditions: rat, oral dosing of radioactive ENT-01, portal blood concentrations
patients with PD [6] = assay: Circadian rhythm of wrist skin temperature (I-Button); assay type: in vivo, human; conditions: fixed dose vs baseline, 12 evaluable patients
Description: (6) I-Button Temperature Assessment. The I-Button is a small, rugged self-sufficient system that measures temperature and records the results in a protected memory section. The Thermochron I-Button DS1921H (Maxim Integrated, Dallas, Tex.) was used for skin temperature measurement. I-Buttons were programmed to sample every 10 mins., and attached to a double-sided cotton sport wrist band using Velcro, with the sensor face of the I-Button placed over the inside of the wrist, on the radial artery of the dominant hand. Subjects removed and replaced the data logger when necessary (i.e., to have a bath or shower). […] From the collected data, the mesor, amplitude, acrophase (time of peak temperature), Rayleight test (an index of interdaily stability), mean waveforms are calculated.);
(§3) Assessments were made at baseline and at the end of the fixed dose and washout periods. Circadian system status was evaluated by continuously monitoring wrist skin temperature (Thermochron iButton DS1921H; Maxim, Dallas) following published procedures (Sarabia et al. 2008).
Circadian rhythm of skin temperature was evaluable in 12 patients (i.e., those who had recordings that extended from baseline through washout). Circadian system functionality was evaluated by continuously monitoring wrist skin temperature using a temperature sensor (Thermochron iButton DS1921H; Maxim, Dallas, Tex.) (Sarabia et al. 2008). […]

Solubility in water = assay type: physicochemical; conditions: phosphate salt
patients with PD [7] = assay: CNS symptoms in Stage 2 (UPDRS, MMSE, PDHQ, BDI-II); assay type: in vivo, human; conditions: during treatment; 5 patients with hallucinations and 1 with delusions at baseline
Description: Exploratory end-points, in addition to constipation, included for example, (i) depression assessed using the Beck Depression Inventory (BDI-II) (Steer et al. 2000) and Unified Parkinson's Disease Rating Scale (UPDRS); (ii) cognition assessed using the Mini Mental State Examination (MMSE) (Palsteia et al. 2018), Unified Parkinson's Disease Rating Scale (UPDRS), and Trail Making Test (TMT); (iii) sleep and REM-behavior disorder (RBD) using a daily sleep diary, I-Button Temperature Assessment, a REM sleep behavior disorder (RBD) questionnaire (RBDQ) (Stiasny-Kolster et al. 2007), and the UPDRS; (iv) hallucinations assessed using the PD hallucinations questionnaire (PDHQ) (Papapetropoulos et al. 2008), the UPDRS, and direct questioning; (v) fatigue using the Parkinson's Disease Fatigue Scale (PFS-16) and the UPDRS; (vi) motor functions using the UPDRS; and (vii) non-motor functions using the UPDRS.
as §3
An exploratory analysis was done with respect to the sleep data, the body temperature data, mood, fatigue, hallucinations, cognition and other motor and non-motor symptoms of PD. […]

C. elegans αS model = conditions: cited from earlier work; for formation of αS aggregates: C. elegans model of PD in vivo
mouse models of PD = mouse models of PD (constipation due to overexpression of human αS); cited from earlier work
[8] = dilactate salt, single and repeat intravenous administration, alone or in combination; cited from earlier work
[9] = following systemic administration, mice, into the duodenum through the biliary tract; cited from earlier work
[10] = tested on: gastrointestinal motility; conditions: prior studies; cited from earlier work
[11] = tested on: IPANs (intrinsic primary afferent neuron); conditions: perfusion through the lumen of isolated bowel segment from the PD mouse model; cited from earlier work
[12] = Stage 2, 34 dosed, unrelated to ENT-01

Compound: CC(C)[C@@H](CC[C@@H](C)[C@H]1CC[C@H]2[C@@H]3[C@H](O)C[C@H]4C[C@@H](NCCCNCCCCN)CC[C@]4(C)[C@H]3CC[C@]12C)OS(=O)(=O)O (single isomer, unassigned) [squalamine (ENT-01)]
- formation of αS aggregates (αS [1]): inhibit the formation of aggregates of αS
- displacement of αS from membranes (αS [2]): displace αS from membranes
- Blood in urine, Mild [3, 12]: 0 n
- Loss of appetite, Mild [3, 12]: 0 n
- Lower GI bleed, Severe ([3]; Stage 2, colonic diverticulosis, polyp, patient on aspirin, Plavix and naproxen, unrelated to ENT-01): 1 n
- patients with worsening of hemorrhoids ([3]; both stages, 1/44 patients): 2.2%
- patients with worsening of acid reflux ([3]; both stages, 2/44 patients): 4.5%
- patients with flatulence ([3]; both stages, 3/44 patients): 6.8%
- patients with vomiting ([3]; both stages, 3/44 patients): 6.8%
- patients with dizziness ([3]; both stages, 8/44 patients): 18%
- patients with abdominal pain ([3]; both stages, 11/44 patients): 32%
- mean dose required for a bowel (prokinetic) response [4]: 120 mg
- absorption from the intestine [5]: low
- markers of circadian function (IS, RA, CFI, IV) of wrist skin temperature rhythm (patients with PD [6]): improved all markers of healthy circadian function
- solubility in water (Solubility in water; neutral pH): weakly soluble in water
- dissolution in water (Solubility in water; pH<3.5 (the pH of gastric fluid)): readily dissolves
- hallucinations and delusions improved or disappeared (patients with PD [7]): 5 of 6
- formation of αS aggregates (C. elegans αS model): inhibit the formation of aggregates of αS

Compound: CC(C)[C@@H](CC[C@@H](C)[C@H]1CC[C@H]2[C@@H]3[C@H](O)C[C@H]4C[C@@H](NCCCNCCCCN)CC[C@]4(C)[C@H]3CC[C@]12C)OS(=O)(=O)O [squalamine]
- formation of αS aggregates (αS [1]): inhibits the formation of αS aggregates
- effect on gastrointestinal motility (mouse models of PD): stimulates gastro-intestinal motility; also recorded: restores gastrointestinal motility; also recorded: reverse gastrointestinal dysmotility
- well tolerated dose [8]: at least 300 mg/m^2
- clearance and excretion [9]: cleared by the liver and excreted as the intact molecule
- formation of αS aggregates (C. elegans αS model): inhibits the formation of αS aggregates
- muscle paralysis / motor dysfunction (C. elegans αS model; C. elegans αS model): reverses motor dysfunction; also recorded: complete reversal of muscle paralysis
- gastrointestinal motility after intravenous administration [10]: not associated with increased gastrointestinal motility
- effect on IPANs [11]: excitation of IPANs
